Measurements reported in patent US9029322B2, “Compounds for enhancing p21 expression and methods of use thereof” (Cornell University, priority 2007, dated 2015).

How the values were obtained:
[1] = tested on: arylhydrocarbon receptor (AHR); assay: Microarray gene analysis on spinal cord tissue RNA after intraperitoneal dosing; type: in vivo, rats
Procedure: Based on available dosing data, rats were dosed with 1, 5, 10, 15 or 30 mg/kg ciclopirox (intraperiotoneal; 3 animals per concentration). Spinal cord, liver and skeletal muscle tissue was harvested 6-hours after drug delivery. Real-time rt-PCR was performed on RNA extracted from tissues to examine the expression of p21waf1/cip1, arginase-1, and VEGF in order to determine what might be the most efficacious dose.
Microarray gene analysis was also performed on spinal cord tissue RNA to determine gene expression changes that correlate with treatment and dose in an unbiased manner.

[2] = tested on: contusion injury at the level of T-8; assay: Spinal cord contusion injury, single injection after injury; type: in vivo, rats
[3] = tested on: mouse or human p21 promoter; assay: p21-luciferase reporter screen in stably transfected HT22 cells; type: cell-based; conditions: HT22 lines stably expressing p21-luciferase; positive control
Procedure: To identify novel activators of p21, fragments of the mouse or human p21 promoter were subcloned into the pGL3 basic promoter-reporter construct (see promoter sequence information). The resultant p21-luciferase reporter plasmids were each then stably transfected into a mouse hippocampal cell line, HT22. […] Drugs were added to cells stably expressing p21-luciferase in a 96 well format. The HDAC inhibitor trichostatin A was used as a positive control. After 12 hours of drug treatment, the cells were lysed and luciferase activity was measured using a desktop luminometer. Cell viability was monitored in parallel, so that agents that induce toxicity can quickly be eliminated. Secondary screens including real time PCR or Western blots of p21 were monitored in primary neurons.

AHR gene expression change in spinal cord (microarray) ([1]; rats, 1, 5, 10, 15 or 30 mg/kg intraperitoneal, tissue harvested 6 hours after drug delivery)	blood brain barrier penetration ([1]; rats, intraperitoneal, inferred from spinal cord gene expression changes)	Compound	induction of transcription in the spinal cord ([1]; rats, intraperitoneal, in vivo)	protection (lesion volume) ([2]; single 30 mg/kg intraperitoneal injection 30 minutes after contusion injury at T-8)	effect on behavior (functional improvement) ([2]; single injection after injury)	p21-luciferase response [3]
dose-dependent ciclopirox-regulated gene	could penetrate the blood brain barrier	Cc1cc(C2CCCCC2)n(O)c(=O)c1 [ciclopirox]	could induce transcription in the spinal cord	significant protection (reduced lesion volume)	little functional improvement	–
–	–	CC(/C=C/C(=O)NO)=C\[C@@H](C)C(=O)c1ccc(N(C)C)cc1 [trichostatin A]	–	–	–	predicted increases in p21-luciferase
